Results reported in patent US4447607A, “Dibenzo diazacines” (The Upjohn Company, priority 1982, dated 1984).

Columns and labels:
thromboxane synthetase = details: prior art compounds, as noted in British patent specification; cited from earlier work
TXA2 synthetase = target: T1, TXA2 synthetase (Homo sapiens, UniProt P24557); assay: TXA2 inhibition test: TXA2 generated from PGH2 with human platelet microsomes, response of superfused rabbit aortic strips; assay type: biochemical; details: rabbit aorta response
T1 construct: human platelet microsomes (HPM); from tissue; host or cells: human platelet microsomes
T1 sequence (P24557 1-533): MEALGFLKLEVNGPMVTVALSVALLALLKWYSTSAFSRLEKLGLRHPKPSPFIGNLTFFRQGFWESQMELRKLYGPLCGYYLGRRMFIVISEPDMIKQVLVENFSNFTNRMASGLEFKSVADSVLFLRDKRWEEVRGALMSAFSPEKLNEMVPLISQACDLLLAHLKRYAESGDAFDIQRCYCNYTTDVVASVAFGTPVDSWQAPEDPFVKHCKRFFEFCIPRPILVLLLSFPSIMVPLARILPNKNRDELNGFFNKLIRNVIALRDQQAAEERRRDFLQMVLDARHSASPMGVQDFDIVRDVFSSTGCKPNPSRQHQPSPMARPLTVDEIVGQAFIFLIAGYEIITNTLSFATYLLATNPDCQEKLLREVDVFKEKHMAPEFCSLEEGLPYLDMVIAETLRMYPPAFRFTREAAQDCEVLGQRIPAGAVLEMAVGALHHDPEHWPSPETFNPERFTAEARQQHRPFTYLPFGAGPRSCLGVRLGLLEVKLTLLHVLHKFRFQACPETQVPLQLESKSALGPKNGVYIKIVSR
Method: The compounds of the present invention were tested for TXA2 inhibition as follows:
Rabbit aortic strips were superfused in series with Krebs solution. Thromboxane A2 (TXA2) was generated by mixing prostaglandin H2 (PGH2) with human platelet microsomes (HPM).
Potential inhibitors were tested by comparing the response of the rabbit aorta to the amount of TXA2 produced by mixing PGH2 and HPM without the test compound in the reaction medium and then the amount of TXA2 produced when the test compound was added to the HPM 5 minutes before the HPM was mixed with PGH2. […] For a discussion of TXA2 synthetase inhibition testing see, e.g., R. Gorman, supra.

| Molecule | inhibitory activity on thromboxane synthetase (in words) (thromboxane synthetase) | effectiveness in inhibiting TXA2 formation (in words) (TXA2 synthetase) |
| --- | --- | --- |
| CCCCCC=CC[C@@H](C=CC=CCC=CCCCC(=O)O)OO [12L-hydroperoxy-5,8,10,14-eicosatetraenoic acid] | very weak | – |
| c1cncc(-c2ccc3c(c2)CN2CN3Cc3cc(-c4cccnc4)ccc32)c1 [Example 1, 2,8-Di(3-pyridyl)-6H,12H-5,11-methanodibenzo[b,f][1,5]diazocine] | – | most effective |
| CC(Cc1ccc(O)c(O)c1)C(C)Cc1ccc(O)c(O)c1 (stereo not shown) [nordihydroguaiaretic acid] | very weak | – |
| sodium p-benzyl-4(1-oxo-2-(4-chlorobenzyl)-3-phenylpropyl)phenyl phosphate | very weak | – |
